Data taken from patent US9150521B2, “Methods of preventing and treating diabetes by inhibiting serotonin synthesis” (The Trustees of Columbia University in the City of New York, priority 2012, dated 2015).
One block for each compound: values may come before it.

Tests used:
[1] = system: WT mice; assay: Plasma levels of glycerol and FFA in mice; assay type: in vivo
Excerpt: (§1) All animals were maintained according to NIH guidelines.

[2] = reference 24 (Liu et al. 2008); cited from earlier work
[3] = target: TPH1 (Mus musculus, UniProt P17532); settings: WT mice fed a high fat diet; LP533401 100 mg/kg/day by gavage
Excerpt: (§2) Mice were housed under 12:12 light:dark cycle and chow and water were provided ad libitum. All animals were maintained according to NIH guidelines. The Htr2bflox/flox, Tph1flox/flox, and Villin-cre mice have been described previously (1). Alb-cre and aP2-cre mice were obtained from the Jackson Laboratory. For glucose tolerance tests mice were fasted overnight before i.p. injection of 2 g/kg body weight (BW) d-glucose in phosphate buffered saline (PBS) or 1 g/kg BW when mice were fed high fat diet. For pyruvate tolerance tests, mice were fasted overnight, injected i.p. with 2 g/kg BW sodium pyruvate in PBS. Glycerol tolerance test (4 g/kg BW) was performed after 4 h fasting. For insulin tolerance tests, mice were injected with 0.75 U/kg of insulin after 4 h fasting. Glucose was measured by tail vein bleeds at the indicated intervals using an ACCU-CHECK® glucometer. Measurement of free fatty acids (FFA) and glycerol were performed in plasma using a serum triglycerides determination kit (TR0100, Sigma) and a NEFA-HR(2) kit (WAKO Diagnostics). Plasma concentration of serotonin and glucagon were determined by Glucagon ELISA (Alpco, 48-GLUHU-E01) and Serotonin (Research) ELISA, (IBL-America, IB89540). Hyperinsulinemic-euglycemic clamp was performed in the University of Massachusetts Mouse Phenotyping Center, University of Massachusetts Medical School. […]

[4] = system: WT mice; assay: Pyruvate tolerance test (gluconeogenesis); assay type: in vivo
Excerpt: as §2

[5] = system: WT mice; assay: Insulin tolerance test; assay type: in vivo
Excerpt: as §2

[6] = system: WT mice; assay: Glucose tolerance test; assay type: in vivo
Excerpt: as §2

[7] = system: epididymal fat pads; assay: In vitro lipolysis of isolated fat pads; assay type: cell-based, mouse
Description: (§3) In vitro lipolysis assay was performed as described (4). Briefly, epididymal fat pads were isolated and washed several times in Hank's Balanced Salt Solution (HBSS) (Sigma). Tissue pieces (˜25 mg) were incubated in Dulbecco's Modified Eagle's Medium (DMEM) medium (Invitrogen) containing 2% fatty acid free bovine serum albumin (Sigma) at 37° C. for 1 h. After this preincubation, the fat explants were transferred into identical, fresh medium containing serotonin (Sigma) or 10 μM forskolin as a positive control and incubated further for the indicated time-points at 37° C. Afterwards, aliquots of medium were taken for measurements of FFAs and glycerol using available kits (NEFA-HR(2), WAKO Diagnostics; serum triglycerides determination kit, TR0100, Sigma) and tissue was lysed with RIPA buffer for subsequent Western blot analysis or in TRIZOL® (Invitrogen) for gene expression analysis.

[8] = Plasma serotonin concentration in mice implanted with serotonin-releasing pellets; assay type: in vivo; settings: WT mice, subcutaneous serotonin releasing pellets
Excerpt: as §1
This was done by implanting subcutaneously serotonin releasing pellets in WT mice. These pellets increased circulating levels of serotonin approximately two-fold (FIG. 5C).

[9] = system: primary hepatocytes; assay: In vitro glucose production in primary hepatocytes; assay type: cell-based, mouse; settings: for conversion of glycerol to glucose in hepatocytes: primary hepatocytes, indicated doses of serotonin or 100 nM glucagon
Description: Production of glucose was assessed in primary, freshly isolated, attached hepatocytes. Briefly, cells were platted on 12 well plate format (200,000 cells per well). After isolation, the cells were allowed to attach and recover for 6 h in Williams E medium containing 10% fetal calf serum. Then they were washed and starved for 1 h in Dulbecco's Modified Eagle's DMEM without glucose and phenol red but with 2 mM L-glutamate and 0.5% BSA (D5030, Sigma). Then the cells were switched to the same medium or the same medium containing 10 mM glycerol and stimulated with the indicated substances for 6 h. Glucose concentration was determined in the medium using Amplex Red Glucose/Glucose Oxidase Assay Kit, (Invitrogen, A22189). Glucose production from glycerol was determined by subtracting glucose produced by the cells incubated without glycerol from this incubated with glycerol.

[10] = system: hormone sensitive lipase (HSL); assay: Western blot of lipolytic enzymes in fat explants stimulated with serotonin; assay type: cell-based, mouse; settings: 50 μM serotonin, Htr2b-dependent
Description: as §3
Western blotting was performed according to standard procedures. Frozen tissues or cells were homogenized and lysed with RIPA buffer. Membranes were blocked and then incubated overnight with primary antibody in TBST-5% BSA, followed by incubation with appropriate HRP-conjugated secondary antibody. Signals were visualized with ECL. […]

[11] = system: WT mice; assay: Glycerol tolerance test in WT mice implanted with serotonin-releasing pellets; assay type: in vivo; settings: WT mice implanted with serotonin pellets vs placebo controls
Excerpt: as §1

[12] = WT mice fed a high fat diet, fasted for 4 h, LP533401 100 mg/kg/day
[13] = mice fed a high fat diet, LP533401 100 mg/kg/day
[14] = WT mice fed a normal diet, compared with Tph1gutΔ/Δ mice
[15] = Htr2b-deficient fat pad explants, 50 μM serotonin or 1 μM isoproterenol
[16] = fed WT mice, subcutaneous serotonin releasing pellets
[17] = epididymal fat pads treated with increasing amounts of serotonin

TPH1, sequence (P17532 whole entry): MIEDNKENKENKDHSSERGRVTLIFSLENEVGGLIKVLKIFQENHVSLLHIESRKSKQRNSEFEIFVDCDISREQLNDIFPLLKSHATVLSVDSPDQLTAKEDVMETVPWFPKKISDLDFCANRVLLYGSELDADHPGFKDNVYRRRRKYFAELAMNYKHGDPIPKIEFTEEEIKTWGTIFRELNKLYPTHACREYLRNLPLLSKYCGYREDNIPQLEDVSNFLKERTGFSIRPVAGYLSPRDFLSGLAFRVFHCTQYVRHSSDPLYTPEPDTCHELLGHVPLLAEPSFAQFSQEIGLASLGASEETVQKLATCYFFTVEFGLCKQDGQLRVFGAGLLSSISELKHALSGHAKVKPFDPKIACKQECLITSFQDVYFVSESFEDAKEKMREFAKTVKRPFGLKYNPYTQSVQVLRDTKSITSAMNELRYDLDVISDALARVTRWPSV

Compound: Nc1nc(OC(c2ccc(-c3cccc(F)c3)cc2)C(F)(F)F)cc(-c2ccc(C[C@H](N)C(=O)O)cc2)n1 (stereo partly drawn) [LP533401]
FFAs circulating levels [1, 12]: normalization
glycerol circulating levels [1, 12]: decrease
FFA levels ([1]; WT mice fed a normal diet): decreased
glycerol levels ([1]; WT mice fed a normal diet): decreased
crossing of the blood-brain barrier [2]: does not cross efficiently the blood-brain barrier
reduction of circulating serotonin levels [3]: 80%
gluconeogenesis rate ([4]; WT mice fed a normal diet): decreased
gluconeogenesis [4, 13]: significantly improved
insulin tolerance [5, 14]: improved
insulin sensitivity [5, 13]: normalized
glucose tolerance [6, 14]: improved
glucose tolerance [6, 13]: significantly improved

Compound: CC(C)NCC(O)c1ccc(O)c(O)c1 (stereo not drawn) [isoproterenol]
release of FFAs [7, 15]: favored equally well
release of glycerol [7, 15]: favored equally well

increase of circulating levels of serotonin [8]: approximately two-fold
conversion of glycerol to glucose in hepatocytes [9]: stimulated
Compound: NCCc1c[nH]c2ccc(O)cc12 [serotonin, 5-hydroxytryptamine]
lipolysis ([1]; WT mice implanted with serotonin pellets, fasted for 4 h): further enhanced
circulating levels of FFAs [1, 16]: significant increase
circulating levels of glycerol [1, 16]: significant increase
release of FFAs [7, 15]: failed to enhance
release of glycerol [7, 15]: failed to enhance
release of FFAs [7, 17]: significantly increased
release of glycerol [7, 17]: significantly increased
glucose production from glycerol ([9]; Htr2bΔ/Δ hepatocytes, 50 μM serotonin): could not induce
phosphorylation of hormone sensitive lipase (HSL) on serine residues 563 and 660 [10]: favored
blood glucose levels after glycerol [11]: to a higher level than in controls

Compound: glucagon
conversion of glycerol to glucose in hepatocytes [9]: stimulated
